Reference: US5422344A, “Method of treating retroviral infections in mammals” (The United States of America as represented by the …, priority 1990, dated 1995)
Entries after “also recorded” stand apart in the source; their conditions may differ.

Tests used:
HIV [1] = details: cited from earlier work
[2] = system: HIV-IIIB (HIV-1) replication in H9 cells; assay: HIV replication (RT activity) in acute infection of H9 cells; type: cell-based; details: for effect on HIV replication: non-cytotoxic doses of topo II inhibitors added during HIV infection
Protocol: HIV-Acute Infection of H9 Cells by HIV and Drug Treatment: One ml of culture supernatant of H9/HIV-IIIB cells (10^6 /ml) was used after centrifugation (200xg, 20 min) and filtration (0.45 μm) for infecting 10^5 H9 cells in the presence or absence of different levels of CPT, m-AMSA or VP-16. Control cells received equivalent volumes of DMSO. The cells were incubated for 1 h at 37° C., pelleted, washed and resuspended in fresh media. […] (1981) J. Virol. 38: 239-48.
CPT Inhibition of HIV Replication Following Acute Infection of H9 Cells with HIV-IIIB. In order to determine appropriate concentrations of CPT which would permit cell viability and growth while inhibiting viral infection or replication, H9 cells were infected with HIV-IIIB as described above in the absence or presence of different CPT doses. The cells were incubated for 1 h at 37° C., pelleted, washed and resuspended in fresh media. Reverse transcriptase (RT) activity in the culture media was measured seven days after infection.
Since CPT is an anticancer drug and a known topo I inhibitor, its effects on HIV replication were compared to those of other anticancer drugs which are known to inhibit the related topoisomerase II enzyme.

H9 cells = assay: Cell number, viability (trypan blue dye exclusion) and growth of H9 cells; type: cell-based
HIV [3] = details: chronically infected cell lines; cited from earlier work
[4] = 0.5 μM VP16, day 6 post-infect.
[5] = 0.5 μM VP16, day 7 post-infect.
[6] = 0.5 μM VP16, day 8 post-infect.
[7] = 0.5 μM VP16, day 9 post-infect.
[8] = 1.5 μM VP16, day 6 post-infect.
[9] = 1.5 μM VP16, day 7 post-infect.
[10] = 1.5 μM VP16, day 8 post-infect.
[11] = 1.5 μM VP16, day 9 post-infect.
[12] = 0.4 μM m-Amsa, day 6 post-infect.
[13] = 0.4 μM m-Amsa, day 7 post-infect.
[14] = 0.4 μM m-Amsa, day 8 post-infect.
[15] = 0.4 μM m-Amsa, day 9 post-infect.
[16] = 1 μM m-Amsa, day 6 post-infect.
[17] = 1 μM m-Amsa, day 7 post-infect.
[18] = 1 μM m-Amsa, day 8 post-infect.
[19] = 1 μM m-Amsa, day 9 post-infect.

Compound: Cc1cn(C2CC(N=[N+]=[N-])C(CO)O2)c(=O)[nH]c1=O (stereo not shown) [AZT]
- block of HIV infection at cell surface or at the level of reverse transcriptase (HIV [1]): known to block HIV infection

Compound: COc1cc(C2c3cc4c(cc3C(OC3OC5COC(C)OC5C(O)C3O)C3COC(=O)C23)OCO4)cc(OC)c1O (stereo not shown) [VP-16]
- RT/Cell [2, 4]: 26283 cpm/10^5 cells
- RT/Cell [2, 5]: 26143 cpm/10^5 cells
- RT/Cell [2, 6]: 29158 cpm/10^5 cells
- RT/Cell [2, 7]: 25183 cpm/10^5 cells
- RT/Cell [2, 8]: 32242 cpm/10^5 cells
- RT/Cell [2, 9]: 33626 cpm/10^5 cells
- RT/Cell [2, 10]: 30675 cpm/10^5 cells
- RT/Cell [2, 11]: 29194 cpm/10^5 cells
- effect on HIV replication [2]: No effect on HIV replication was observed; also recorded: do not have any significant effect on HIV replication
- No. Cells (H9 cells; [4]): 1 × 10^6
- No. Cells (H9 cells; [5]): 1.6 × 10^6
- No. Cells (H9 cells; [6]): 2.4 × 10^6
- No. Cells (H9 cells; [7]): 3 × 10^6
- No. Cells (H9 cells; [8]): 1 × 10^6
- No. Cells (H9 cells; [9]): 2 × 10^6
- No. Cells (H9 cells; [10]): 2.4 × 10^6
- No. Cells (H9 cells; [11]): 4 × 10^6

Compound: COc1cc(NS(C)(=O)=O)ccc1Nc1c2ccccc2nc2ccccc12 [m-AMSA]
- RT/Cell [2, 12]: 36070 cpm/10^5 cells
- RT/Cell [2, 13]: 25372 cpm/10^5 cells
- RT/Cell [2, 14]: 38594 cpm/10^5 cells
- RT/Cell [2, 15]: 37556 cpm/10^5 cells
- RT/Cell [2, 16]: 32674 cpm/10^5 cells
- RT/Cell [2, 17]: 40057 cpm/10^5 cells
- RT/Cell [2, 18]: 45558 cpm/10^5 cells
- RT/Cell [2, 19]: 36442 cpm/10^5 cells
- effect on HIV replication [2]: do not have any significant effect on HIV replication
- effect on HIV replication ([2]; listed as m-Amsa): No effect on HIV replication was observed
- No. Cells (H9 cells; [12]): 4 × 10^5
- No. Cells (H9 cells; [13]): 9 × 10^5
- No. Cells (H9 cells; [14]): 1.3 × 10^6
- No. Cells (H9 cells; [15]): 2 × 10^6
- No. Cells (H9 cells; [16]): 4 × 10^5
- No. Cells (H9 cells; [17]): 7.5 × 10^5
- No. Cells (H9 cells; [18]): 1.1 × 10^6
- No. Cells (H9 cells; [19]): 2 × 10^6

Compound: interferon α
- suppression of HIV expression (HIV [3]): reported to suppress HIV expression in chronically infected cell lines
